Results on 1 compound are retold here after patent publication US7648973B2, “2-methylene-1α,25-dihydroxy-19,21-dinorvitamin D3 analogs and uses thereof” (Wisconsin Alumni Research Foundation, priority 2006, dated 2010).

Entries after “also recorded” stand apart in the source; their conditions may differ.

Assay [1] deals with T1, full-length recombinant rat vitamin D receptor (Rattus norvegicus, UniProt P13053).
T1 construct: Full-length recombinant rat receptor was expressed in E. coli BL21(DE3) Codon Plus RIL cells; histidine tag (C); made in house; host or cells: E. coli BL21(DE3) Codon Plus RIL
T1 sequence (P13053 1-423): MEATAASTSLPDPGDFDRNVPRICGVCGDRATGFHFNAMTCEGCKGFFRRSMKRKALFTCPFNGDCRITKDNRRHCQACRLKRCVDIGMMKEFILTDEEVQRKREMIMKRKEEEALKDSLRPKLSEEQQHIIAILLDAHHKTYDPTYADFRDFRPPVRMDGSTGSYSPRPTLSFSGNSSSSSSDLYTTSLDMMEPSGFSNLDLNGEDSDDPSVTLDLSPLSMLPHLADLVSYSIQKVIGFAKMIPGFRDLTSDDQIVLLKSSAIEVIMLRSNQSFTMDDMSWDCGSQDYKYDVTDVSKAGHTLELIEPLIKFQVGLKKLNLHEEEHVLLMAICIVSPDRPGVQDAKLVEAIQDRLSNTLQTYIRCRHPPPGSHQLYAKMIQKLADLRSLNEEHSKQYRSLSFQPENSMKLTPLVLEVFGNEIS
The experiment in a line: Vitamin D receptor binding, competition with [3H]-1,25-(OH)2-D3. To be noted: compared with 1α,25-dihydroxyvitamin D3; FIG. 1. The protocol: The first system was a nickel affinity resin that utilizes the C-terminal histidine tag on this protein. The protein that was eluted from this resin was further purified using ion exchange chromatography (S-Sepharose Fast Flow). Aliquots of the purified protein were quick frozen in liquid nitrogen and stored at −80° C. until use. For use in binding assays, the protein was diluted in TEDK50 (50 mM Tris, 1.5 mM EDTA, pH 7.4, 5 mM DTT, 150 mM KCl) with 0.1% Chaps detergent. The receptor protein and ligand concentration was optimized such that no more than 20% of the added radiolabeled ligand was bound to the receptor.
The following day, 100 mcl of hydroxylapatite slurry (50%) was added to each tube and mixed at 10-minute intervals for 30 minutes. The hydroxylapaptite was collected by centrifugation and then washed three times with Tris-EDTA buffer (50 mM Tris, 1.5 mM EDTA, pH 7.4) containing 0.5% Titron X-100. After the final wash, the pellets were transferred to scintillation vials containing 4 ml of Biosafe II scintillation cocktail, mixed and placed in a scintillation counter. Total binding was determined from the tubes containing only radiolabeled ligand.

The subject of a further assay is HL-60 cells. Nature of the assay: HL-60 differentiation (nitro blue tetrazolium reduction). It counts as cell-based, human. To be noted: compared with 1α,25-dihydroxyvitamin D3; FIG. 4. As to the method: The study drugs were dissolved in ethanol and the concentrations determined using UV spectrophotometry. Serial dilutions were prepared so that a range of drug concentrations could be tested without changing the final concentration of ethanol (<0.2%) present in the cell cultures.
Human promyelocytic leukemia (HL60) cells were grown in RPMI-1640 medium containing 10% fetal bovine serum. The cells were incubated at 37° C. in the presence of 5% CO2.
HL60 cells were plated at 1.2×10^5 cells/ml. Eighteen hours after plating, cells in duplicate were treated with drug. Four days later, the cells were harvested and a nitro blue tetrazolium reduction assay was performed (Collins et al., 1979; J. Exp. Med. 149:969-974). The percentage of differentiated cells was determined by counting a total of 200 cells and recording the number that contained intracellular black-blue formazan deposits. Verification of differentiation to monocytic cells was determined by measuring phagocytic activity (data not shown).

Assay [2] has as its system 24-hydyroxylase (24Ohase) gene promoter in ROS 17/2.8 (bone) cells. The experiment in a line: In vitro transcription assay (luciferase reporter). It counts as cell-based. Conditions: compared with 1α,25-dihydroxyvitamin D3; FIG. 5. The protocol:
Transcription activity was measured in ROS 17/2.8 (bone) cells that were stably transfected with a 24-hydyroxylase (24Ohase) gene promoter upstream of a luciferase reporter gene (Arbour et al., 1998). Cells were given a range of doses. Sixteen hours after dosing the cells were harvested and luciferase activities were measured using a luminometer. (RLU=relative luciferase units)
A general note: A reporter such as luciferase makes a cellular process visible.

Assay [3] can be described thus: Bone calcium mobilization (serum calcium). In kind it is in vivo, rat. To be noted: at equimolar quantities or even at 27 times the dose of 1α,25-dihydroxyvitamin D3; ip, 4 consecutive days; FIG. 2. The protocol:
(§1) Male, weanling Sprague-Dawley rats were placed on Diet 11 (0.47% Ca) diet+AEK for one week followed by Diet 11 (0.02% Ca)+AEK for 3 weeks. The rats were then switched to a diet containing 0.47% Ca for one week followed by two weeks on a diet containing 0.02% Ca. Dose administration began during the last week on 0.02% calcium diet. Four consecutive ip doses were given approximately 24 hours apart. Twenty-four hours after the last dose, blood was collected from the severed neck and the concentration of serum calcium determined as a measure of bone calcium mobilization. The first 10 cm of the intestine was also collected for intestinal calcium transport analysis using the everted gut sac method. The everted gut sac assay was carried out as previously described by Martin and Deluca, Am. J. Physiol. 216, 1351 (1969); (DeLuca et al., U.S. Pat. No. 4,188,345), which are incorporated by reference as if fully set forth herein. Serum calcium was determined by atomic absorption spectrophotometry using a Perkin Elmer Model 3110 and by diluting the serum in 0.1% lanthanum chloride.
(§2) The negative control material is prepared by volumetrically measuring ethanol (<5%) and propylene glycol, mixing, and then placing in storage at 2 to 8° C.
(§3) The solution is mixed and then stored at 2 to 8° C. […]

Assay [4] is described as follows: Intestinal calcium transport (everted gut sac). It counts as in vivo, rat. To be noted: compared with 1α,25-dihydroxyvitamin D3; ip, 4 consecutive days; FIG. 3. As to the method:
as §1, §2, §3

Regarding `C=C1[C@H](O)CC(=C/C=C2\CCC[C@]3(C)[C@@H](CCCCC(C)(C)O)CC[C@@H]23)C[C@H]1O` [TP-62, 2-methylene-1α,25-dihydroxy-19,21-dinorvitamin D3], the “binding to the recombinant vitamin D receptor” value in assay [1] is “comparably active when compared to 1α,25-dihydroxyvitamin D3; also recorded: relatively high binding”. In addition, the “differentiation of HL-60 cells” value in the assay on HL-60 cells is given as “more active than 1α,25-dihydroxyvitamin D3”. In addition, in assay [2], the “stimulating transcription of a reporter gene stably transfected in Ros17/2.8 (bone) cells” value is reported as “equally active as 1α,25-dihydroxyvitamin D3”. Besides, in assay [3], the bone calcium mobilization entry is given as “lesser activity than 1α,25-dihydroxyvitamin D3; also recorded: lesser ability to mobilize calcium from bone”. In addition, in assay [4], the “intestinal calcium transport activity” value is “greater or at least equal to 1α,25-dihydroxyvitamin D3”.
